One data set relates to guinea pig ileum. Put plainly: spasmogenic effect on guinea pig ileum in vitro. The note with it: Cavia porcellus, read-out: Guinea pig Ileum: threshold dose for spasmogenic effect. The source says: (§1) These tests include, among others, a test for effect on isolated smooth muscle from guinea pig ileum and rat uterus, a test for effect on histamine induced bronchospasm in guinea pig, a test for effects on dog blood pressure, a test for induction of diarrhea in mice, and a test for the induction of abortion in early pregnant rats.
^(d) Threshold dose for spasmogenic effect on guinea pig ileum in […]

The next data set deals with estrogenized rat uterus. Put plainly: spasmogenic effect on estrogenized rat uterus in vitro. To be noted: read-out: Rat Uterus: threshold dose for spasmogenic effect.
From the text: as §1
^(c) Threshold dose for spasmogenic effect on estrogenized rat uterus

Data set [1] has as its system anesthetized dog blood pressure. Briefly: depressor effect on anesthetized dog blood pressure. The data set is classed as in vivo. To be noted: for Dog Blood Pressure: relative dose at which oxaprostaglandin derivative has similar action to PGE2 for depressor effect: anesthetized dog.
From the text: as §1
^(a) Relative dose at which oxaprostaglandin derivative has similar
action to PGE2 for depressor effect on anesthetized dog blood

Data set [2] deals with histamine induced bronchospasm in the guinea pig. Put plainly: histamine induced bronchospasm in the guinea pig (aerosol). The data set is classed as in vivo. The note with it: for Histamine Aerosol: per cent protection for histamine induced bronchospasm: 100 μg/ml aerosol dose, guinea pig. The procedure: as §1
^(b) Per cent protection by 100 μg/ml aerosol dose for histamine
induced bronchospasm in the guinea pig.

A further data set relates to early pregnant rat. Put plainly: induction of abortion in early pregnant rats. The data set is classed as in vivo.
From the text: as §1
(§2) On the basis of the difference seen in the rat uterus and guinea pig ileum tests with 19 -oxaprostaglandin E2, one would expect to have a reduction of the unpleasant gastrointestinal side effects which were encountered when natural PGE2 was employed as an abortion inducer (Lancet, 536, 1971).

The next data set concerns mice. Briefly: induction of diarrhea in mice in vivo.
From the text: as §1, §2

Data set [3] concerns the target norepinephrine stimulated lipolysis. Briefly: inhibition of norepinephrine stimulated lipolysis. To be noted: read-out: K: inhibition constant for norepinephrine stimulated lipolysis. The source says:
^(e) Inhibition constant for norepinephrine stimulated lipolysis.

Data set [4] in a line: physiological tests taken together (Table I; comparison with natural prostaglandin). The note with it: in words; compared with natural prostaglandin; rat uterus vs guinea pig ileum.
From the text: as §1, §2

`CCOCC[C@H](O)/C=C/[C@H]1[C@H](O)CC(=O)[C@@H]1C/C=C\CCCC(=O)O` [18-oxa PGE2, 9-oxo-11α,15α-dihydroxy-18-oxa-cis-5-trans-13-prostadienoic acid]: the minimal effective concentration in the data set on guinea pig ileum and in the data set on estrogenized rat uterus was 0.1 to 0.3 µg/mL throughout. For the same molecule, in data set [1], the “Dog Blood Pressure: relative dose at which oxaprostaglandin derivative has similar action to PGE2 for depressor effect” value (shortened to “Dog Blood Pressure: relative dose”) came out at 2. The “selectivity with regard to blood pressure effects” value in data set [1] (in words, from Table I) is on record as “particularly selective with regard to its blood pressure effects”. The “Histamine Aerosol: per cent protection for histamine induced bronchospasm” value (shortened to “Histamine Aerosol: per cent protection”) in data set [2] is listed as 3%.

For `CCOCC[C@H](O)/C=C/[C@@H]1[C@@H](C/C=C\CCCC(=O)O)[C@@H](O)C[C@H]1O` [18-oxa PGF2α, 9α,11α,15α-trihydroxy-18-oxa-cis-5-trans-13-prostadienoic acid], the minimal effective concentration in the data set with guinea pig ileum lay in the range of 0.1 to 0.3 µg/mL; in the data set with estrogenized rat uterus, 0.3 to 0.6 µg/mL.

For the molecule `COCCC[C@H](O)/C=C/[C@H]1[C@H](O)CC(=O)[C@@H]1C/C=C\CCCC(=O)O` [19-oxa PGE2, 9-oxo-11α,15α-dihydroxy-19-oxa-cis-5-trans-13-prostadienoic acid], in the data set with early pregnant rat, the “effectiveness in inducing abortion compared with natural PGE2” value is “as effective as natural PGE2”. In addition, the minimal effective concentration in the data set with guinea pig ileum fell in the range of 0.1 to 0.5 µg/mL; with estrogenized rat uterus it was 0.05 to 0.1 µg/mL. For the same molecule, the “effectiveness in inducing diarrhea relative to natural PGE2” value with mice is 10%. The Ki in data set [3] was found to be 2500 nM. For the same molecule, the tissue selectivity entry in data set [4] is “tissue selectivity, particularly 19-oxaprostaglandin E2”. Also, in data set [1], the “Dog Blood Pressure: relative dose” value is listed as 20. For the same molecule, the “Histamine Aerosol: per cent protection” value in data set [2] is given as 19%.

`COCCC[C@H](O)/C=C/[C@@H]1[C@@H](C/C=C\CCCC(=O)O)[C@@H](O)C[C@H]1O` [19-oxa PGF2α, 9α,11α,15α-trihydroxy-19-oxa-cis-5-trans-13-prostadienoicacid]: the minimal effective concentration with guinea pig ileum and with estrogenized rat uterus was 0.1 to 0.5 µg/mL each time.

As to `CCOCCC[C@H](O)/C=C/[C@H]1[C@H](O)CC(=O)[C@@H]1C/C=C\CCCC(=O)O` [19-oxa-ω-homo-PGE2, 9-oxo-11α,15α-dihydroxy-19-oxa-cis-5-trans-13-w-homo-prostadienoic acid], the minimal effective concentration with guinea pig ileum and in the data set on estrogenized rat uterus was 0.1 µg/mL in each case. Besides, the Ki in data set [3] came to 4000 nM. Also, the “Dog Blood Pressure: relative dose” value in data set [1] was determined as 4. Further, in data set [2], the “Histamine Aerosol: per cent protection” value came to 38%. Besides, the “bronchodilator selectivity compared with natural PGE2” value in data set [2] (in words, from Table I) is given as “more selective bronchodilator than natural PGE2”.

Consider `CCOCCC[C@H](O)/C=C/[C@@H]1[C@@H](C/C=C\CCCC(=O)O)[C@@H](O)C[C@H]1O` [19-oxa-ω-homo-PGF2α, 9α,11α,15α-trihydroxy-19-oxa-cis-5-trans-13-ω-homoprostadienoic acid], for which the minimal effective concentration with guinea pig ileum is no less than 0.1 µg/mL; in the data set with estrogenized rat uterus, 0.06 to 0.3 µg/mL.

As to `CCCCC[C@H](O)/C=C/[C@H]1[C@H](O)CC(=O)[C@@H]1C/C=C\CCCC(=O)O` [PGE2, reference compound], the minimal effective concentration with guinea pig ileum and in the data set with estrogenized rat uterus was 0.01 to 0.03 µg/mL in each case. In addition, the Ki in data set [3] is 400 nM. In data set [1], the “Dog Blood Pressure: relative dose” value is listed as 1. Also, in data set [2], the “Histamine Aerosol: per cent protection” value was determined as 75%.

(Values after patent US4094899A, “Oxaprostaglandins” (Pfizer Inc., priority 1973, dated 1978).)
